Molecules are shown by their SMILES.

The results in this text go back to patent US7759337B2, “Phthalazine compounds and methods of use” (Amgen Inc., priority 2005, dated 2010).

The assay deals with production of TNF by monocytes activated with bacterial lipopolysaccharide (LPS). The experiment in a line: Lipopolysaccharide-activated monocyte TNF production assay. The settings on record: Homo sapiens; whole blood monocyte assay (LPS induced TNF release). Type of assay: cell-based. In short, it runs like this:
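Adherent human PBMC-derived monocytes preincubated 60 min with nine two-fold compound dilutions, then stimulated with E. coli K532 LPS (30 ng/mL in the added medium) for 4 h at 37 °C. Supernatant TNF measured by sandwich ELISA; IC50 is the compound concentration halving TNF production, from second-order polynomial fits.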
As for `Cc1ccc(C(N)=O)cc1-c1ccc2c(NC3CCCC3)nncc2c1` [Example 323, 3-[1-(cyclopentylamino)phthalazin-6-yl]-4-methylbenzamide], the half-maximal inhibitory concentration (IC50) is not above 5 µM.

`Cc1ccc(C(N)=O)cc1-c1ccc2c(-c3cccnc3C)nncc2c1` [Example 255, 4-methyl-3-[1-(2-methylpyridin-3-yl)phthalazin-6-yl]benzamide] came in with a 50% inhibitory concentration (IC50) not above 5 µM.

Take `Cc1ccc(C(=O)NC2CC2)cc1-c1ccc2c(N3C[C@@H](C)NC[C@@H]3C)nncc2c1` [Example 147, N-cyclopropyl-3-{1-[(2S,5R)-2,5-dimethylpiperazin-1-yl]phthalazin-6-yl}-4-methylbenzamide]: the half-maximal inhibitory concentration (IC50) is not above 5 µM.

`Fc1ccc(Oc2ccc3c(N4CCOCC4)nncc3c2)c(F)c1` [Example 356, 6-(2,4-difluorophenoxy)-1-morpholin-4-ylphthalazine] showed an IC50 not above 5 µM.

For the molecule `Cc1ccc(C(=O)NC2CC2)cc1-c1ccc2c(C3CCN(C)CC3)nncc2c1` [Example 150, N-cyclopropyl-4-methyl-3-[1-(1-methylpiperidin-4-yl)phthalazin-6-yl]benzamide], the IC50 was not above 5 µM.

`Cc1ccc(C(=O)NC2CC2)cc1-c1ccc2c(N3CCNC(=O)CC3)nncc2c1` [Example 275, N-cyclopropyl-4-methyl-3-[1-(5-oxo-1,4-diazepan-1-yl)phthalazin-6-yl]benzamide]: the half-inhibitory concentration (IC50) was not above 5 µM.

In turn, `Cc1ccc(C(=O)NC2CC2)cc1-c1ccc2c(-c3ccc(OC(F)(F)F)cc3)nncc2c1` [Example 245, N-cyclopropyl-4-methyl-3-{1-[4-(trifluoromethoxy)phenyl]phthalazin-6-yl}benzamide] had an IC50 not above 5 µM.

`Cc1ccc(C(=O)NC2CC2)cc1-c1ccc2c(NC(C)c3ccccn3)nncc2c1` (centres unmarked) [Example 369, N-cyclopropyl-4-methyl-3-{1-[(1-pyridin-2-ylethyl)amino]phthalazin-6-yl}benzamide] gave a half-inhibitory concentration (IC50) not above 5 µM.

The molecule `CC(=O)N1CCN(c2nncc3cc(-c4c(C)ccc5c(NC6CC6)noc45)ccc23)[C@@H](C)C1` [Example 390, 7-{1-[(2S)-4-acetyl-2-methylpiperazin-1-yl]phthalazin-6-yl}-N-cyclopropyl-6-methyl-1,2-benzisoxazol-3-amine] registered an IC50 not above 5 µM.

`Cc1ccc2c(N)noc2c1-c1ccc2c(NC(C)C)nncc2c1` [Example 385, 6-(3-amino-6-methyl-1,2-benzisoxazol-7-yl)-N-isopropylphthalazin-1-amine]: the concentration for half-maximal inhibition (IC50) is not above 5 µM.

Regarding `Cc1ccc(C(=O)NC2CC2)cc1-c1ccc2c(O)nncc2c1` [Example 288, N-cyclopropyl-3-(1-hydroxyphthalazin-6-yl)-4-methylbenzamide], the IC50 is not above 5 µM.

`C[C@H]1COCCN1c1nncc2cc(-c3ccc(C(F)(F)F)c4c(NC(C)(C)C)noc34)ccc12` [Example 16, N-tert-butyl-7-(1-((S)-3-methylmorpholino)phthalazin-6-yl)-4-(trifluoromethyl)benzo[d]isoxazol-3-amine] had an IC50 not above 5 µM.

`Cc1ccc(-c2nncc3cc(-c4cc(C(=O)NC5CC5)ccc4C)ccc23)c(C)c1` [Example 18, N-cyclopropyl-3-[1-(2,4-dimethylphenyl)phthalazin-6-yl]-4-methylbenzamide] came in with an IC50 not above 5 µM.

In turn, `COc1cc(F)ccc1-c1nncc2cc(-c3cc(C(N)=O)ccc3C)ccc12` [Example 213, 3-[1-(4-fluoro-2-methoxyphenyl)phthalazin-6-yl]-4-methylbenzamide] returned an IC50 not above 5 µM.

Regarding `Cc1ccc(C(=O)NC2CCC2)cc1-c1ccc2c(N3CCN4C(=O)OC[C@@H]4C3)nncc2c1` [Example 269, 3-{1-[(8aS)-3-oxotetrahydro[1,3]oxazolo[3,4-a]pyrazin-7(1H)-yl]phthalazin-6-yl}-N-cyclobutyl-4-methylbenzamide], the IC50 is not above 5 µM.

Turning to `Cc1ccc(C(N)=O)cc1-c1ccc2c(Oc3ccc(F)cc3)nncc2c1` [Example 301, 3-[1-(4-fluorophenoxy)phthalazin-6-yl]-4-methylbenzamide], the IC50 is not above 5 µM.

The molecule `Cc1ccc2c(NC(C)(C)C)noc2c1-c1ccc2c(N3CCOC[C@@H]3C)nncc2c1` [Example 381, N-(tert-butyl)-6-methyl-7-{1-[(3S)-3-methylmorpholin-4-yl]phthalazin-6-yl}-1,2-benzisoxazol-3-amine] registered an IC50 not above 5 µM.

For `Cc1ccc(Oc2nncc3cc(-c4cc(C(N)=O)ccc4C)ccc23)c(C)c1` [Example 321, 3-[1-(2,4-dimethylphenoxy)phthalazin-6-yl]-4-methylbenzamide], the 50% inhibitory concentration (IC50) was not above 5 µM.

`Cc1ccc(C(N)=O)cc1-c1ccc2c(N3CCOC[C@@H]3C)nncc2c1` [Example 184, 4-methyl-3-{1-[(3S)-3-methylmorpholin-4-yl]phthalazin-6-yl}benzamide] gave a half-maximal inhibitory concentration (IC50) not above 5 µM.

As to `Cc1ccc(C(=O)NC2CC2)cc1-c1ccc2c(N3CCN(C)CC3)nncc2c1` [Example 23, N-cyclopropyl-4-methyl-3-(1-(4-methylpiperazin-1-yl)phthalazin-6-yl)benzamide], the half-inhibitory concentration (IC50) is not above 5 µM.

`Cc1ccc(C(=O)NC2CC2)cc1-c1ccc2c(N3CCC(O)(C(C)C)CC3)nncc2c1` [Example 61, N-cyclopropyl-3-(1-(4-hydroxy-4-isopropylpiperidin-1-yl)phthalazin-6-yl)-4-methylbenzamide] gave an IC50 not above 5 µM.

For `Fc1ccc(Oc2ccc3c(N4CCOCC4)nncc3c2)cc1` [Example 336, 6-(4-fluorophenoxy)-1-morpholin-4-ylphthalazine], the IC50 was not above 5 µM.

`Cc1ccc(C(N)=O)cc1-c1ccc2c(-c3ccc(S(C)(=O)=O)cc3)nncc2c1` [Example 214, 4-methyl-3-{1-[4-(methylsulfonyl)phenyl]phthalazin-6-yl}benzamide]: the IC50 was not above 5 µM.

`COc1ncc(-c2nncc3cc(-c4cc(C(=O)NC5CC5)ccc4C)ccc23)cn1` [Example 264, N-cyclopropyl-3-[1-(2-methoxypyrimidin-5-yl)phthalazin-6-yl]-4-methylbenzamide] had a half-maximal inhibitory concentration (IC50) not above 5 µM.

With `Cc1ccc(C(=O)NC2CC2)cc1-c1ccc2c(N3CCN4C(=O)CC[C@@H]4C3)nncc2c1` [Example 267, 3-{1-[(8aR)-6-oxohexahydropyrrolo[1,2-a]pyrazin-2(1H)-yl]phthalazin-6-yl}-N-cyclopropyl-4-methylbenzamide], the IC50 is not above 5 µM.

Molecule `Cc1ccc(C(N)=O)cc1-c1ccc2c(-c3cc4ccccc4[nH]3)nncc2c1` [Example 216, 3-[1-(1H-indol-2-yl)phthalazin-6-yl]-4-methylbenzamide] registered an IC50 not above 5 µM.

`COCCNc1nncc2cc(-c3cc(C(N)=O)ccc3C)ccc12` [Example 189, 3-{1-[(2-methoxyethyl)amino]phthalazin-6-yl}-4-methylbenzamide] had a half-maximal inhibitory concentration (IC50) not above 5 µM.

As for `Cc1ccc(C(=O)NC2CC2)cc1-c1ccc2c(-c3c[nH]c(=O)cc3C)nncc2c1` [Example 287, N-cyclopropyl-4-methyl-3-[1-(4-methyl-6-oxo-1,6-dihydropyridin-3-yl)phthalazin-6-yl]benzamide], the IC50 was not above 5 µM.

The molecule `Cc1ccc(C(=O)NC2CC2)cc1-c1ccc2c(N3CC4CC3CO4)nncc2c1` (centres unmarked) [Example 27, 3-(1-(5-oxa-2-aza-bicyclo[2.2.1]heptan-2-yl)phthalazin-6-yl)-N-cyclopropyl-4-methylbenzamide] had an IC50 not above 5 µM.
